The test system of assay [1] is morphine-induced pruritus mice. The assay is described as follows: Inhibitory effect for pruritus in morphine-induced pruritus mice. Format: in vivo, male ddY mice. As to conditions: oral, dose of 30 mg/kg or less, 30 minutes before intrathecal morphine (1 nmol/5 μL); scratching counted for 30 minutes. How it is done: Morphine (1 nmol/5 μL, dissolved in physiological saline) or physiological saline was intrathecally administered between the fifth and sixth lumbar vertebrae of male ddY mice using a microsyringe fitted with a 30-gauge injection needle. Mice administered with only morphine were used as a control group, and mice administered with only physiological saline as a physiological saline-administered group.
After the morphine administration, the number of scratching behavior with the hind legs which observed immediately in the mice was measured for 30 minutes. Because mice show a rapid, continuous scratching behavior in each scratching behavior, a series of such behavior was counted as a single scratching behavior.
The test compounds were administered 30 minutes before the morphine administration. Each test compound was suspended in a 0.5% methylcellulose solution, and orally administered in 10 mL/kg volume.

Assay [2] addresses T1, human Cav3.2 T-type Ca2+ channel (Homo sapiens, UniProt O95180).
T1 construct: expressed in transfected cells; host or cells: KJMGER8 cells (Namalwa cell-derived cell line)
The assay is described as follows: Inhibitory effect for intracellular calcium response via Cav3.2 T-type Ca2+ channels (FLIPR Calcium 3 Assay Kit). Type of assay: cell-based. For orientation: Calcium flux is commonly read through the fluorescence of an indicator in the cells.

Where two headings read alike, the source gives them in different places. Some results are limits rather than exact numbers.

T1 sequence (O95180 whole entry): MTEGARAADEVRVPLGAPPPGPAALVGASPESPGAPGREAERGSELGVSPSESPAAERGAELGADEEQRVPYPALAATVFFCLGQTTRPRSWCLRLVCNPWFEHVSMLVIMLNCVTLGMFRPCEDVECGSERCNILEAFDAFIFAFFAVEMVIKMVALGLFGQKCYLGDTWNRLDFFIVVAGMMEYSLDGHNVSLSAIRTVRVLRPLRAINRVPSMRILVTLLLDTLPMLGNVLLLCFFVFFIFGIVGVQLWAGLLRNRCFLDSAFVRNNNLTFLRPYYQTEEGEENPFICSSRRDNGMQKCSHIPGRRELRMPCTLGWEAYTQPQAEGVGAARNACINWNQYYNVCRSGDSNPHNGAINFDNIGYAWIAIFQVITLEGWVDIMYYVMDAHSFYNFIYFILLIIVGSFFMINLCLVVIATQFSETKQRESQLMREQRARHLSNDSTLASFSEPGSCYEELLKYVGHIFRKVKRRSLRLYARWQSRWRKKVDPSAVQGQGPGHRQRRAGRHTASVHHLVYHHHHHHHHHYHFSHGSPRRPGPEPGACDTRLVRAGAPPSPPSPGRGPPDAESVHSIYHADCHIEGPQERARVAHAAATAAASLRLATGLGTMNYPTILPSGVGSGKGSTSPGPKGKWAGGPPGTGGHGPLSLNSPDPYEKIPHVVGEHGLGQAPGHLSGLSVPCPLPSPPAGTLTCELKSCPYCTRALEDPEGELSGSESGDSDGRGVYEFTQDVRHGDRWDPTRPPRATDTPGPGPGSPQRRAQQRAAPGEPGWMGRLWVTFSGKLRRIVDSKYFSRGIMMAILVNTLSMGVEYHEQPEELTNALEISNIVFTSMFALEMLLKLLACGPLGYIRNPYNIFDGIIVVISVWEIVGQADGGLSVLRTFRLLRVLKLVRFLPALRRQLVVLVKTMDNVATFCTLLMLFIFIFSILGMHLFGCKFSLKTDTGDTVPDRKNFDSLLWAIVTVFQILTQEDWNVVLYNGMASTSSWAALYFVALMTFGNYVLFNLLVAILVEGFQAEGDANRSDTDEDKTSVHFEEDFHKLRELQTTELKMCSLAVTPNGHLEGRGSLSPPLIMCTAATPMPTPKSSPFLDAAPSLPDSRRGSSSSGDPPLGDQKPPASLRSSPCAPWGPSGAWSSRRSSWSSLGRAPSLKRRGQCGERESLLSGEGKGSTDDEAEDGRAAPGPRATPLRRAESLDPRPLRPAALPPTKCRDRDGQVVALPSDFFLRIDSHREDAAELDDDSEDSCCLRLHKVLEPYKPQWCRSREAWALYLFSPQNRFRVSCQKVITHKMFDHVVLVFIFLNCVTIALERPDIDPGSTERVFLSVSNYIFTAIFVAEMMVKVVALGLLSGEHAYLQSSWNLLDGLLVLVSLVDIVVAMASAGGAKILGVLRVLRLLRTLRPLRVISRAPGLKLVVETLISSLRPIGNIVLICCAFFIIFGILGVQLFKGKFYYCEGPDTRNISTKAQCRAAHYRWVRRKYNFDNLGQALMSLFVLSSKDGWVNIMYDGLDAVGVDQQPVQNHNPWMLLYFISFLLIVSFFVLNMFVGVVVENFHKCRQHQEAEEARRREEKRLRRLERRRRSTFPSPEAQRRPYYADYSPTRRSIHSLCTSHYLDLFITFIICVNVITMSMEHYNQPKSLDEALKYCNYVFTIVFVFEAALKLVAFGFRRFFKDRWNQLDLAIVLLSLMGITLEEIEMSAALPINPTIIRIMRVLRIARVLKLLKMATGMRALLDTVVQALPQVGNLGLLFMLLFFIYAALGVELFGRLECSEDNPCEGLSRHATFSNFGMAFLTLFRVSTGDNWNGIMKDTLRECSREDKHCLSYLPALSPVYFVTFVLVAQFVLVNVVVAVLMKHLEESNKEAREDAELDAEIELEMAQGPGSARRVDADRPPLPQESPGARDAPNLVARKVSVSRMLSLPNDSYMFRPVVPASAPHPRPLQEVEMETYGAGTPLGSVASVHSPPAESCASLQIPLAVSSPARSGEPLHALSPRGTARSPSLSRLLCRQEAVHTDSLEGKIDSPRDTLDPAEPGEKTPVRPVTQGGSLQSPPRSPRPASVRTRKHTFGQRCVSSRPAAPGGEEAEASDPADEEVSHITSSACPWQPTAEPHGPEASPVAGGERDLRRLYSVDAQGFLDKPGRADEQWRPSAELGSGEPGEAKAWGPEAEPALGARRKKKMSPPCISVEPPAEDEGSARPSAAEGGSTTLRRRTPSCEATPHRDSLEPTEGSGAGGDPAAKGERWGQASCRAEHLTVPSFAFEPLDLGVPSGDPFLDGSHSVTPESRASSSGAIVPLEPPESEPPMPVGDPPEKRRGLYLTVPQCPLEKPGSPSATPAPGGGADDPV

With `Cc1cc(C(=O)NCC2CCOCC2)cc2nc(C(F)(F)F)c(CC3CCC(F)(F)CC3)n12` [Compound 81, 3-(4,4-Difluorocyclohexylmethyl)-5-methyl-N-{(tetrahydro-2H-pyran-4-yl)methyl}-2-trifluoromethylimidazo[1,2-a]pyridine-7-carboxamide], the “increase of the scratching behavior observed in the morphine-induced pruritus mice” value (“increase” below) in assay [1] is “inhibited”. The IC50 (usually the concentration at which inhibition is half-maximal) in assay [2] was < 100 nM.

As to `Cc1cc(C(=O)NC2CCC(O)CC2)cc2nc(C(F)(F)F)c(CC3CCC(F)(F)CC3)n12` (stereo not drawn) [Compound 70, 3-(4,4-Difluorocyclohexylmethyl)-N-(4-hydroxycyclohexyl)-5-methyl-2-trifluoromethylimidazo[1,2-a]pyridine-7-carboxamide], the “increase” value in assay [1] was “inhibited”. Also, the IC50 in assay [2] was < 100 nM.

Take `O=C(Nc1ccncc1)c1ccn2c(CC3CCCCC3)c(C(F)(F)F)nc2c1` [Compound 35, 3-Cyclohexylmethyl-N-(pyridin-4-yl)-2-trifluoromethylimidazo[1,2-a]pyridine-7-carboxamide]: the “increase” value in assay [1] was “inhibited”. Moreover, the IC50 in assay [2] was < 100 nM.

As for `Cc1cc(C(=O)NC2CCOC2)cc2nc(C(F)(F)F)c(CC3CCC(F)(F)CC3)n12` (stereo not drawn) [Compound 73, 3-(4,4-Difluorocyclohexylmethyl)-5-methyl-N-(tetrahydrofuran-3-yl)-2-trifluoromethylimidazo[1,2-a]pyridine-7-carboxamide], in assay [1], the “increase” value is given as “inhibited”. In assay [2], the IC50 was < 100 nM.

On to `Cc1cn2c(COC3CCCCC3)c(C(C)C)nc2cc1C(=O)Nc1ccncc1` [Compound 43, 3-Cyclohexyloxymethyl-2-isopropyl-6-methyl-N-(pyridin-4-yl)imidazo[1,2-a]pyridine-7-carboxamide], for which the “increase” value in assay [1] is “inhibited”. Moreover, in assay [2], the half-inhibitory concentration (IC50) was < 100 nM.

As for `CC(C)c1nc2cc(C(=O)NC3CCOCC3)c(Cl)cn2c1CC1CCC(F)(F)CC1` [Compound 111, 6-Chloro-3-(4,4-difluorocyclohexylmethyl)-2-isopropyl-N-(tetrahydro-2H-pyran-4-yl)imidazo[1,2-a]pyridine-7-carboxamide], the “increase” value in assay [1] is reported as “inhibited”. For the same compound, the IC50 in assay [2] is < 100 nM.

Take `CC1(C)CC(NC(=O)c2cc(Cl)n3c(CC4CCC(F)(F)CC4)c(C(F)(F)F)nc3c2)CCO1` (stereo not drawn) [Compound 105, 5-Chloro-3-(4,4-difluorocyclohexylmethyl)-N-(2,2-dimethyltetrahydro-2H-pyran-4-yl)-2-trifluoromethylimidazo[1,2-a]pyridine-7-carboxamide]: the “increase” value in assay [1] is recorded as “inhibited”. Moreover, in assay [2], the IC50 was < 100 nM.

Consider `O=C(NC1CCOCC1)c1cc2nc(C3(C(F)(F)F)CC3)c(CC3CCC(F)(F)CC3)n2cc1Cl` [Compound 110, 6-Chloro-3-(4,4-difluorocyclohexylmethyl)-N-(tetrahydro-2H-pyran-4-yl)-2-{1-(trifluoromethyl)cyclopropyl}imidazo[1,2-a]pyridine-7-carboxamide], for which the “increase” value in assay [1] is listed as “inhibited”. Further, the IC50 in assay [2] was < 100 nM.

Consider `COC(C)(C)CNC(=O)c1cc(C)n2c(CC3CCC(F)(F)CC3)c(C(F)(F)F)nc2c1` [Compound 79, 3-(4,4-Difluorocyclohexylmethyl)-N-(2-methoxy-2-methylpropyl)-5-methyl-2-trifluoromethylimidazo[1,2-a]pyridine-7-carboxamide], for which the “increase” value in assay [1] is recorded as “inhibited”. In addition, the IC50 in assay [2] is < 100 nM.

`Cc1cc(C(=O)NC2CCC(F)(F)CC2)cc2nc(C(F)(F)F)c(CC3CCC(F)(F)CC3)n12` [Compound 72, N-(4,4-Difluorocyclohexyl)-3-(4,4-difluorocyclohexylmethyl)-5-methyl-2-trifluoromethylimidazo[1,2-a]pyridine-7-carboxamide]: in assay [1], the “increase” value is “inhibited”. Besides, in assay [2], the IC50 was < 100 nM.

For the compound `Cc1cc(C(=O)NC2CCOC(C)(C)C2)cc2nc(C(F)(F)F)c(CC3CCC(F)(F)CC3)n12` (stereo not drawn) [Compound 75, 3-(4,4-Difluorocyclohexylmethyl)-N-(2,2-dimethyltetrahydro-2H-pyran-4-yl)-5-methyl-2-trifluoromethylimidazo[1,2-a]pyridine-7-carboxamide], the “increase” value in assay [1] is listed as “inhibited”. Further, the IC50 in assay [2] (human Cav3.2-expressing KJMGER8 cells (Namalwa-derived), calcium response induced by 5 mmol/L CaCl2, normalised to 3 μmol/L mibefradil, read-out: IC50 for the human Cav3.2 T-type Ca2+ current) is < 100 nM.

Regarding `Cc1cc(C(=O)NCC2CCOC2)cc2nc(C(F)(F)F)c(CC3CCC(F)(F)CC3)n12` (stereo not drawn) [Compound 80, 3-(4,4-Difluorocyclohexylmethyl)-N-{(tetrahydrofuran-3-yl)methyl}-5-methyl-2-trifluoromethylimidazo[1,2-a]pyridine-7-carboxamide], the “increase” value in assay [1] was “inhibited”. For the same compound, the IC50 in assay [2] was < 100 nM.

For the origin of these results see US9000186B2, “Ring-fused heterocyclic derivative” (Kyowa Hakko Kirin Co., Ltd., priority 2011, dated 2015).
